The numbers were not newly measured in PMC8453901, “GLPG1205, a GPR84 Modulator: Safety, Pharmacokinetics, and Pharmacodynamics in Healthy Subjects” (Clinical Pharmacology in Drug Development, 2021), which cites them from elsewhere.

In the data set the test system is histological lesions in the lung. Also noted: method as in PMID 29454750. As to conditions: bleomycin-induced mouse model of pulmonary fibrosis, compared with vehicle; cited from earlier work.

For `CCCCCc1cccc(CC(=O)O)c1` [PBI‐4050], the “reduction of histological lesions in the lung” value is 47%.
